Read-outs that look alike come from different tables or passages of the source.
What was measured:
[1] = target: T1, PPARdelta (Homo sapiens, UniProt Q03181); assay: NHR Protein Interaction Biosensor assay (PathHunter NHR cell lines, agonist format); format: cell-based
T1 construct: expressed in transfected cells
T1 sequence (Q03181 1-441): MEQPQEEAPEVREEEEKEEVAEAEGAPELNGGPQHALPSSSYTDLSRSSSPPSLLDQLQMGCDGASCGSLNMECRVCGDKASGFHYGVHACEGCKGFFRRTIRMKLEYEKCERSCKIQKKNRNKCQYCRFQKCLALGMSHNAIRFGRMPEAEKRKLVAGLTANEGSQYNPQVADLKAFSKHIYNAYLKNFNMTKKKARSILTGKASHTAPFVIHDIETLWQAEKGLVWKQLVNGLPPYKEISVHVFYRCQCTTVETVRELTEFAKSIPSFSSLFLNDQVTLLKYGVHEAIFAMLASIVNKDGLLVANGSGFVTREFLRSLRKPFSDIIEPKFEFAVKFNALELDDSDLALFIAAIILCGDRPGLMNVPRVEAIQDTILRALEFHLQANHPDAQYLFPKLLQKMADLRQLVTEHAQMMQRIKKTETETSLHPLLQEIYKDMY
Protocol: (2) Nuclear Hormone Receptor (NHR) Assays
PathHunter NHR cell lines were expanded from freezer stocks according to standard procedures. Cells were seeded in a total volume of 20 μL into white walled, 384-well microplates and incubated at 37° C. for the appropriate time prior to testing. Assay media contained charcoal-dextran filtered serum to reduce the level of hormones present.
For agonist determination, cells were incubated with sample to induce response. Intermediate dilution of sample stocks was performed to generate 5× sample in assay buffer. […] Final assay vehicle concentration was 1%.
Microplates were read following signal generation with a PerkinElmer Envision™ instrument for chemiluminescent signal detection.
Compound activity was analyzed using CBIS data analysis suite (ChemInnovation, CA). For agonist mode assays, percentage activity was calculated using the following formula:
% Activity=100%×(mean RLU of test sample−mean RLU of vehicle control)/(mean MAX control ligand−mean RLU of vehicle control).

[2] = target: T2, Human PPARδ (Homo sapiens, UniProt Q03181); assay: PPARδ activity screen: GAL4-PPARδ LBD luciferase transactivation in CV-1 cells; format: cell-based
T2 construct: (PPARδ amino acid 128 to C-terminus); expressed in transfected cells; host or cells: CV-1 cells
T2 sequence (Q03181 128-441 limits assumed): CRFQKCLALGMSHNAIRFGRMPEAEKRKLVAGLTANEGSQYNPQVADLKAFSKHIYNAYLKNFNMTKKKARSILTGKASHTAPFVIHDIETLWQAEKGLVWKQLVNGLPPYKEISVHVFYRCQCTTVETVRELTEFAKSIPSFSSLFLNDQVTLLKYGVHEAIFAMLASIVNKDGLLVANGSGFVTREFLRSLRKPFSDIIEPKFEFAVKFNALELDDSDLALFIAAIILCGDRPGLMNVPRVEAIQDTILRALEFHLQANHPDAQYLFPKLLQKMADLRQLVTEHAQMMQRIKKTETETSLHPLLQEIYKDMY
Protocol: CV-1 cells were grown in DMEM+10% charcoal stripped FCS. Cells were seeded into 384-well plates the day before transfection to give a confluency of 50-80% at transfection. A total of […] containing 0.64 micrograms pCMX-PPARDelta LBD, 0.1 micrograms pCMXβGal, 0.08 micrograms pGLMH2004 reporter and 0.02 micrograms pCMX empty vector was transfected per well using FuGene transfection reagent according to the manufacturer's instructions (Roche). Cells were allowed to express protein for 48 h followed by addition of compound.
Human PPARδ was used to PCR amplify the PPARδ LBD. […] Ensuing fusions were verified by sequencing.
Compounds: All compounds were dissolved in DMSO and diluted 1:1000 upon addition to the cells. Compounds were tested in quadruple in concentrations ranging from 0.001 to 100 μM. Cells were treated with compound for 24 h followed by luciferase assay. Each compound was tested in at least two separate experiments.
The activity of a compound is calculated as fold induction compared to an untreated sample. For each compound the efficacy (maximal activity) is given as a relative activity compared to GW501516, a PPARδ agonist. […] EC50 values were calculated via non-linear regression using GraphPad PRISM (GraphPad Software, San Diego, Calif.).

[3] = PathHunter NHR cells, agonist format, read-out: NHR Protein Interaction Biosenor assay, PPARdelta EC50
[4] = CV-1 cells, GAL4-PPARδ LBD luciferase reporter, compound for 24 h, read-out: PPAR delta transactivation EC50

SMILES	EC50 [1, 3]	EC50 [2, 4]	EC50 [1]	EC50 [2]
Cc1cnc(-c2ccc(-c3ccco3)cc2)n1Cc1ccccc1OCCCCCC(=O)O [Compound 8a, 6-(2-((2-(4-(furan-2-yl)phenyl)-5-methyl-1H-imidazol-1-yl)methyl)phenoxy) hexanoic acid]	< 0.51 nM	0.9 nM		
Cc1ccc(-c2ccc(-c3ncc(C)n3Cc3ccccc3OCCCCCC(=O)O)cc2)o1 [Compound 8b, 6-(2-((5-methyl-2-(4-(5-methylfuran-2-yl)phenyl)-1H-imidazol-1-yl)methyl)phenoxy)hexanoic acid]	0.58 nM	1.2 nM		
Cc1cnc(-c2ccc(-c3ccco3)cc2)n1Cc1ccccc1OCCCCC(C)(C)C(=O)O [Compound 8d, 6-(2-((2-(4-(furan-2-yl)phenyl)-5-methyl-1H-imidazol-1-yl)methyl)phenoxy)-2,2-dimethylhexanoic acid]	0.84 nM	4.5 nM		
C/C(=C\COc1ccccc1Cn1c(C)cnc1-c1ccc(-c2ccco2)cc1)CCC(=O)O [Compound 8e, (E)-6-(2-((2-(4-(furan-2-yl)phenyl)-5-methyl-1H-imidazol-1-yl)methyl)phenoxy)-4-methylhex-4-enoic acid]	0.79 nM	1 nM		
Cc1cn(Cc2ccccc2OCCCCC(C)(C)C(=O)O)c(-c2ccc(-c3ccco3)cc2)n1 [Compound 8k, 6-(2-((2-(4-(furan-2-yl)phenyl)-4-methyl-1H-imidazol-1-yl)methyl)phenoxy)-2,2-dimethylhexanoic acid]	16.5 nM	58 nM		
O=C(O)CCCCCOc1ccccc1Cn1ccnc1-c1ccc(-c2ccco2)cc1 [Compound 8l, 6-(2-((2-(4-(furan-2-yl)phenyl)-1H-imidazol-1-yl)methyl)phenoxy)hexanoic acid]	1.28 nM	9.5 nM		
Cc1nc(-c2ccc(-c3ccco3)cc2)c(Cc2ccccc2OCCCCCC(=O)O)s1 [Compound 8m, 6-(2-((4-(4-(furan-2-yl)phenyl)-2-methylthiazol-5-yl)methyl)phenoxy) hexanoic acid]			1.27 nM	18 nM
C/C(=C\COc1ccccc1Cc1c(C)n[nH]c1-c1ccc(-c2ccco2)cc1)CCC(=O)O [Compound 8p, (E)-6-(2-((5-(4-(furan-2-yl)phenyl)-3-methyl-1H-pyrazol-4-yl)methyl)phenoxy)-4-methylhex-4-enoic acid]			4.97 nM	1.2 nM
Cc1cnc(-c2ccc(-c3ccco3)cc2)n1Cc1ccccc1CCCCCCC(=O)O [Compound 8q, 7-(2-((2-(4-(furan-2-yl)phenyl)-5-methyl-1H-imidazol-1-yl)methyl)phenyl)heptanoic acid]	13 nM	3.1 nM		
C/C(=C\COc1ccccc1Cn1c(C)cnc1-c1ccc(Cl)nc1)CCC(=O)O [Compound 8r, (E)-6-(2-((2-(6-chloropyridin-3-yl)-5-methyl-1H-imidazol-1-yl)methyl)phenoxy)-4-methylhex-4-enoic acid]		5.5 nM		

Now from value to compound:

EC50 [1, 3]	EC50 [2, 4]	EC50 [1]	EC50 [2]	SMILES
0.65 nM	8.3 nM			Cc1cnc(-c2ccc(C#CC(F)(F)F)cc2)n1Cc1ccccc1OCCCCCC(=O)O [Compound 8g, 6-(2-((5-methyl-2-(4-(3,3,3-trifluoroprop-1-yn-1-yl)phenyl)-1H-imidazol-1-yl)methyl)phenoxy)hexanoic acid]
1.49 nM	0.94 nM			Cc1cnc(-c2ccc(OC(F)(F)F)cc2)n1Cc1ccccc1OCCCCCC(=O)O [Compound 8h, 6-(2-((5-methyl-2-(4-(trifluoromethoxy)phenyl)-1H-imidazol-1-yl)methyl)phenoxy)hexanoic acid]
	15.7 nM	13.4 nM		Cc1cn(Cc2ccccc2OCCCCCC(=O)O)c(-c2ccc(-c3ccco3)cc2)n1 [Compound 8i, 6-(2-((2-(4-(furan-2-yl)phenyl)-4-methyl-1H-imidazol-1-yl)methyl)phenoxy) hexanoic acid]
5.01 nM	56 nM			Cc1cn(Cc2ccccc2OCCCCCC(=O)O)c(-c2ccc(-c3ccc(C)o3)cc2)n1 [Compound 8j, 6-(2-((4-methyl-2-(4-(5-methylfuran-2-yl)phenyl)-1H-imidazol-1-yl)methyl)phenoxy)hexanoic acid]
		19.9 nM	117 nM	Cn1cc(Cc2ccccc2OCCCCCC(=O)O)c(-c2ccc(-c3ccco3)cc2)n1 [Compound 8n, 6-(2-((3-(4-(furan-2-yl)phenyl)-1-methyl-1H-pyrazol-4-yl)methyl)phenoxy)hexanoic acid]
		9.12 nM	2.9 nM	C/C(=C\COc1ccccc1Cc1c(C)noc1-c1ccc(-c2ccco2)cc1)CCC(=O)O [Compound 8o, (E)-6-(2-((5-(4-(furan-2-yl)phenyl)-3-methylisoxazol-4-yl)methyl)phenoxy)-4-methylhex-4-enoic acid]

Source: US20170305894A1, “PPAR AGONISTS, COMPOUNDS, PHARMACEUTICAL COMPOSITIONS, AND METHODS OF USE THEREOF” (priority 2014, published 2017)
